One may read the IC50 as the point on the concentration scale where inhibition reaches its midpoint.

Chain of hQC (Q16769 29-361): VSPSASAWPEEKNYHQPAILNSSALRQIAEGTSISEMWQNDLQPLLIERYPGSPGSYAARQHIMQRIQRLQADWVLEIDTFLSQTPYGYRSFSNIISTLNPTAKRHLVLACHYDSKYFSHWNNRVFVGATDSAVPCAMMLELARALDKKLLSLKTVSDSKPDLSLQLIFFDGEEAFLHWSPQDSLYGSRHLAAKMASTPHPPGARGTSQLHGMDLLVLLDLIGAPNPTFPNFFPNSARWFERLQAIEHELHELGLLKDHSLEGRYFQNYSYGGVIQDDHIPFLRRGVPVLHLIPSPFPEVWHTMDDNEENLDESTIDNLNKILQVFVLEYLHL

This test has as its target hQC (Homo sapiens, UniProt Q16769). Kind of test: Fluorometric assay of glutaminyl cyclase (QC) inhibition, H-Gln-βNA or H-Gln-AMC substrate. The test is classed as biochemical. Conditions: read-out: IC50. On the procedure:
All compounds were immediately tested regarding their activity as hQC inhibitors.
The purity of the compounds was determined by HPLC-MS. The IC50 value against hQC was measured using the fluorescent assay.
All measurements were performed with a BioAssay Reader HTS-7000Plus for microplates (Perkin Elmer) at 30° C. QC activity was evaluated fluorometrically using H-Gln-βNA. The samples consisted of 0.2 mM fluorogenic substrate, 0.25 U pyroglutamyl aminopeptidase (Unizyme, Hørsholm, Denmark) in 0.2 M Tris/HCl, pH 8.0 containing 20 mM EDTA and an appropriately diluted aliquot of QC in a final volume of 250 μl. Excitation/emission wavelengths were 320/410 nm. The assay reactions were initiated by addition of glutaminyl cyclase. QC activity was determined from a standard curve of β-naphthylamine under assay conditions. One unit is defined as the amount of QC catalyzing the formation of 1 μmol pGlu-βNA from H-Gln-βNA per minute under the described conditions.
In a second fluorometric assay, QC was activity was determined using H-Gln-AMC as substrate. Reactions were carried out at 30° C. utilizing the NOVOStar reader for microplates (BMG labtechnologies). The samples consisted of varying concentrations of the fluorogenic substrate, 0.1 U pyroglutamyl aminopeptidase (Qiagen) in 0.05 M Tris/HCl, pH 8.0 containing 5 mM EDTA and an appropriately diluted aliquot of QC in a final volume of 250 μl. Excitation/emission wavelengths were 380/460 nm. The assay reactions were initiated by addition of glutaminyl cyclase. QC activity was determined from a standard curve of 7-amino-4-methylcoumarin under assay conditions. The kinetic data were evaluated using GraFit software.
For inhibitor testing, the sample composition was the same as described above, except of the putative inhibitory compound added. For a rapid test of QC-inhibition, samples contained 4 mM of the respective inhibitor and a substrate concentration at 1 KM. For detailed investigations of the inhibition and determination of Ki-values, influence of the inhibitor on the auxiliary enzymes was investigated first. In every case, there was no influence on either enzyme detected, thus enabling the reliable determination of the QC inhibition. The inhibitory constant was evaluated by fitting the set of progress curves to the general equation for competitive inhibition using GraFit software.
As for `CCc1ccccc1/N=C1\NC(=O)N(c2ccc3[nH]cnc3c2)C1c1ccc2c(c1)OCO2` (stereo not drawn) [Compound 287, 5-Benzo1,3dioxol-5-yl-1-(1H-benzoimidazol-5-yl)-4-2-ethyl-phenylimino-imidazolidin-2-one], the IC50 is 3.1 µM. On to `S=C1N/C(=N\C(Cc2ccccc2)c2ccccc2)C(C2=CCCCC2)N1c1ccc2[nH]cnc2c1` (stereo not drawn) [Compound 240, 1-(1H-Benzoimidazol-5-yl)-5-cyclohex-1-enyl-4-1,2-diphenyl-ethylimino-imidazolidine-2-thione], for which the IC50 was found to be 8.5 µM. With `O=C1N/C(=N\C(c2ccccc2)c2ccccc2)C(c2ccccc2F)N1CCCn1ccnc1` (stereo not drawn) [Compound 87, 4-Benzhydrylimino-5-(2-fluoro-phenyl)-1-(3-imidazol-1-yl-propyl)-imidazolidin-2-one], the half-maximal inhibitory concentration (IC50) was determined as 4 µM. Consider `Cc1cccc(C2/C(=N\Cn3nnc4ccccc43)NC(=S)N2c2ccc3nc[nH]c3c2)n1` (stereo not drawn) [Compound 277, 1-(3H-Benzoimidazol-5-yl)-4-benzotriazol-1-ylmethylimino-5-(6-methyl-pyridin-2-yl)-imidazolidine-2-thione], for which the IC50 is 4 µM.

On to `Fc1ccc(/N=C2\NC(=S)N(c3ccc4[nH]cnc4c3)C2c2ccnc3ccccc23)cc1` (stereo not drawn) [Compound 202, 1-(1H-Benzoimidazol-5-yl)-4-4-fluoro-phenylimino-5-quinolin-4-yl-imidazolidine-2-thione], for which the IC50 is 7.6 µM. Regarding `O=C(C/N=C1\NC(=O)N(CCCn2ccnc2)C1c1cccc(F)c1F)N1CCc2ccccc2C1` (stereo not drawn) [Compound 68, 5-(2,3-Difluoro-phenyl)-4-2-(3,4-dihydro-1H-isoquinolin-2-yl)-2-oxo-ethylimino-1-(3-imidazol-1-yl-propyl)-imidazolidin-2-one], the IC50 amounted to 4 µM. Then `O=C1N/C(=N\C2CCCCC2)C(c2cc(Br)cs2)N1c1ccc2[nH]cnc2c1` (stereo not drawn) [Compound 184], with 1.3 µM; and `O=C1N/C(=N\C2CCCCC2)C(c2cccc(F)c2F)N1CCCn1ccnc1` (stereo not drawn) [Compound 3], with 6.8 µM.

`Cc1ccc(C2/C(=N\CCc3c[nH]c4ccccc34)NC(=O)N2c2ccc3[nH]cnc3c2)c(C)c1` (stereo not drawn) [Compound 219, 1-(1H-Benzoimidazol-5-yl)-5-(2,4-dimethyl-phenyl)-4-2-(1H-indol-3-yl)-ethylimino-imidazolidin-2-one]: the IC50 was determined as 0.004 µM. Turning to `O=C1N/C(=N/CCCc2ccccc2)C(c2c[nH]c3cc(F)ccc23)N1c1ccc2[nH]cnc2c1` (stereo not drawn) [Compound 232, 1-(1H-Benzoimidazol-5-yl)-5-(6-fluoro-1H-indol-3-yl)-4-3-phenyl-propylimino-imidazolidin-2-one], the half-inhibitory concentration (IC50) turned out to be 2.2 µM. For `O=C1N/C(=N\Cc2ccccc2)C(c2ccccc2Cl)N1CCCn1ccnc1` (stereo not drawn) [Compound 97, 4-Benzylimino-5-(2-chloro-phenyl)-1-(3-imidazol-1-yl-propyl)-imidazolidin-2-one], the IC50 came out at 4 µM. Then `O=C1N/C(=N\c2ccc3c(c2)OCCO3)C(c2cccc(Br)c2)N1c1ccc2nc[nH]c2c1` (stereo not drawn) [Compound 334, 1-(3H-Benzoimidazol-5-yl)-5-(3-bromo-phenyl)-4-2,3-dihydro-benzo1,4dioxin-6-ylimino-imidazolidin-2-one], with 0.4 µM. Regarding `Cc1ccc(C2/C(=N/C3CCCCCC3)NC(=O)N2c2ccc3nc[nH]c3c2)c(C)c1` (stereo not drawn) [Compound 283, 1-(3H-Benzoimidazol-5-yl)-4-cycloheptylimino-5-(2,4-dimethyl-phenyl)-imidazolidin-2-one], the IC50 was found to be 0.4 µM. With `CCc1ccccc1/N=C1\NC(=O)N(c2ccc3[nH]cnc3c2)C1c1ccccc1` (stereo not drawn) [Compound 245, 1-(1H-Benzoimidazol-5-yl)-4-2-ethyl-phenylimino-5-phenyl-imidazolidin-2-one], the IC50 was determined as 7.6 µM. As for `O=C(C/N=C1\NC(=O)N(CCCn2ccnc2)C1c1ccccc1Cl)N1CCc2ccccc2C1` (stereo not drawn) [Compound 71, 5-(2-Chloro-phenyl)-4-2-(3,4-dihydro-1H-isoquinolin-2-yl)-2-oxo-ethylimino-1-(3-imidazol-1-yl-propyl)-imidazolidin-2-one], the IC50 was determined as 4 µM. For the molecule `O=C1N/C(=N/CCc2c[nH]c3ccccc23)C(c2cc(F)cc(F)c2)N1CCCn1ccnc1` (stereo not drawn) [Compound 53, 5-(3,5-Difluoro-phenyl)-1-(3-imidazol-1-yl-propyl)-4-2-(1H-indol-3-yl)-ethylimino-imidazolidin-2-one], the IC50 is 4 µM. For the molecule `S=C1N/C(=N/Cc2ccccc2)C(c2cccc(Br)c2)N1c1ccc2[nH]cnc2c1` (stereo not drawn) [Compound 261, 1-(1H-Benzoimidazol-5-yl)-4-benzylimino-5-(3-bromo-phenyl)-imidazolidine-2-thione], the IC50 stood at 6.7 µM. On to `O=C(C/N=C1\NC(=S)N(c2ccc3[nH]cnc3c2)C1c1c(F)ccc(Cl)c1F)N1CCCC(O)C1` (stereo not drawn) [Compound 134, 2-(1-(1H-benzo[d]imidazol-5-yl)-5-(3-chloro-2,6-difluorophenyl)-2-thioxoimidazolidin-4-ylideneamino)-1-(3-hydroxypiperidin-1-yl)ethanone], for which the IC50 turned out to be 2.2 µM. Then `O=C(CN=C1NC(=O)N(c2ccc3[nH]cnc3c2)C1c1ccc(Cl)c(F)c1)N1CCC(O)C1` (stereo not drawn) [Compound 281, 1-(1H-Benzoimidazol-5-yl)-5-(4-chloro-3-fluoro-phenyl)-4-2-(3-hydroxy-pyrrolidin-1-yl)-2-oxo-ethylimino-imidazolidin-2-one], with 6.7 µM; and `Cc1ccc(C2/C(=N/C(C)(C)CC(C)(C)C)NC(=O)N2c2ccc3nc[nH]c3c2)cc1` (stereo not drawn) [Compound 293, 1-(3H-Benzoimidazol-5-yl)-4,1,1,3,3-tetramethyl-butylimino-5-p-tolyl-imidazolidin-2-one], with 5.8 µM; and `O=C(C/N=C1/NC(=O)N(c2ccc3[nH]cnc3c2)C1c1ccc(Cl)c(F)c1)N1CCCCC1` (stereo not drawn) [Compound 302, 1-(1H-Benzoimidazol-5-yl)-5-(4-chloro-3-fluoro-phenyl)-4-2-oxo-2-piperidin-1-yl-ethylimino-imidazolidin-2-one], with 3.1 µM. With `CN(C)c1ccc(C2/C(=N\Cn3nnc4ccccc43)NC(=S)N2c2ccc3[nH]cnc3c2)cc1` (stereo not drawn) [Compound 280, 1-(1H-Benzoimidazol-5-yl)-4-benzotriazol-1-ylmethylimino-5-(4-dimethylamino-phenyl)-imidazolidine-2-thione], the IC50 stood at 1.3 µM. Take `CCc1ccccc1/N=C1\NC(=S)N(c2ccc3nc[nH]c3c2)C1C1CCC(C)=CC1C` (stereo not drawn) [Compound 288, 1-(3H-Benzoimidazol-5-yl)-5-(2,4-dimethyl-cyclohex-3-enyl)-4-2-ethyl-phenylimino-imidazolidine-2-thione]: the IC50 was found to be 7.6 µM. For the molecule `O=C1NC(=NCC2CCCO2)C(c2cccc(F)c2F)N1CCCn1ccnc1` (stereo not drawn) [Compound 114, 5-(2,3-Difluoro-phenyl)-1-(3-imidazol-1-yl-propyl)-4-tetrahydro-furan-2-ylmethylimino-imidazolidin-2-one], the IC50 was 8.5 µM. Take `O=C(C/N=C1/NC(=O)N(CCCn2ccnc2)C1c1ccc(Cl)c(F)c1)N1Cc2ccccc2C1` (stereo not drawn) [Compound 13, 5-(4-Chloro-3-fluoro-phenyl)-4-2-(1,3-dihydro-isoindol-2-yl)-2-oxo-ethylimino-1-(3-imidazol-1-yl-propyl)-imidazolidin-2-one]: the IC50 is 8.3 µM. Consider `O=C1N/C(=N\C(Cc2ccccc2)c2ccccc2)C(C2=CCCCC2)N1c1ccc2[nH]cnc2c1` (stereo not drawn) [Compound 169, 1-(1H-Benzoimidazol-5-yl)-5-cyclohex-1-enyl-4-1,2-diphenyl-ethylimino-imidazolidin-2-one], for which the IC50 came out at 3.1 µM. For the molecule `O=C(C/N=C1/NC(=O)N(c2ccc3[nH]cnc3c2)C1c1cc(Br)cs1)N1CCCCC1` (stereo not drawn) [Compound 119, 1-(1H-Benzoimidazol-5-yl)-5-(4-bromo-thiophen-2-yl)-4-2-oxo-2-piperidin-1-yl-ethylimino-imidazolidin-2-one], the IC50 came out at 6.7 µM.

As for `O=C1N/C(=N\C2CCCc3ccccc32)C(c2cccc(Br)c2)N1c1ccc2[nH]cnc2c1` (stereo not drawn) [Compound 336, 1-(1H-Benzoimidazol-5-yl)-5-(3-bromo-phenyl)-4-1,2,3,4-tetrahydro-naphthalen-1-ylimino-imidazolidin-2-one], the IC50 worked out at 0.004 µM. As for `O=C1N/C(=N\c2ccc3c(c2)OCCO3)C(c2ccc3c(c2)OCCO3)N1c1ccc2[nH]cnc2c1` (stereo not drawn) [Compound 235, 1-(1H-Benzoimidazol-5-yl)-5-(2,3-dihydro-benzo1,4dioxin-6-yl)-4-2,3-dihydro-benzo1,4dioxin-6-ylimino-imidazolidin-2-one], the IC50 amounted to 0.004 µM. For the molecule `O=C1N/C(=N/Cc2cccnc2)C(c2cc(F)cc(F)c2)N1CCCn1ccnc1` (stereo not drawn) [Compound 90, 5-(3,5-Difluoro-phenyl)-1-(3-imidazol-1-yl-propyl)-4-pyridin-3-ylmethylimino-imidazolidin-2-one], the IC50 is 8.5 µM.

The values are drawn from patent publication US20080221086A1, “Novel Inhibitors of Glutaminyl Cyclase” (PROBIODRUG AG, priority 2006, published 2008).
